Reference: patent US4851411A, “5-monoaryl as.-triazin-3-ones substituted in 2-position, and their use as medicaments” (Pierre Fabre Medicament, priority 1986, dated 1989)

Assay: Solubility
Assay type: physicochemical
Conditions: acetic acid

Row | solubility in acetic acid | SMILES
1 | Insoluble | COc1ccc(C(=O)Cn2ncc(-c3ccc(OC)cc3)nc2=O)cc1 [Example 40, 2-p.methoxyphenacyl 3-oxo 5-p.methoxyphenyl as triazine]
2 | Soluble | COc1ccc(-c2cnn(CC(=O)c3ccccc3)c(=O)n2)cc1 [Example 37, 2-Phenacyl 3-oxo 5-p.methoxyphenyl as triazine]
3 | Soluble | COc1ccc(-c2cnn(CC(=O)c3ccc(Cl)cc3Cl)c(=O)n2)cc1 [Example 39, 2-(dichloro-2,4 phenacyl) 3-oxo 5-p.methoxyphenyl as triazine]

Same assay, conditions: alcohols

Row | SMILES | solubility in alcohols
4 | COc1ccc(-c2cnn(CCCCCN3CCC(O)CC3)c(=O)n2)cc1 [Example 28, N 2-[ε-pentyl (4-hydroxypiperidine)] 3-oxo 5-p-methoxyphenyl as.-triazine] | Soluble
5 | CCOC(=O)CC(C(=O)OCC)n1ncc(-c2ccc(OC)cc2)nc1=O (stereo not drawn) [Example 27, 2-diethoxysuccinyl 3-oxo 5-p-methoxyphenyl as.-triazine] | Soluble
6 | CCOC(=O)CCCn1ncc(-c2ccc(C)cc2)nc1=O [Example 35, 2-N-ethylbutyrate 3-oxo 5-p-methylphenyl as.-triazine] | Soluble
7 | Cc1ccc(-c2cnn(C(CCO)C(=O)O)c(=O)n2)cc1 (stereo not drawn) [Example 19, 2-[3-(3-carboxy 1-propanol)] 3-oxo 5-p-methylphenyl as.-triazine] | Poorly soluble

The remaining lines, values ahead:

Row | solubility in alcohols | SMILES
8 | Insoluble | COc1ccc(C(=O)Cn2ncc(-c3ccc(OC)cc3)nc2=O)cc1 [Example 40, 2-p.methoxyphenacyl 3-oxo 5-p.methoxyphenyl as triazine]
9 | Soluble | COc1ccc(-c2cnn(CCCN(C)C)c(=O)n2)cc1 [Example 17, 2-γ dimethylaminopropyl 3-oxo 5-p-methoxyphenyl as.-triazine]
10 | Insoluble | COc1ccc(-c2cnn(CC(=O)c3ccc(Cl)cc3Cl)c(=O)n2)cc1 [Example 39, 2-(dichloro-2,4 phenacyl) 3-oxo 5-p.methoxyphenyl as triazine]

Same assay, conditions: alcohols, in the hot

Row | solubility in alcohols in the hot | SMILES
11 | Soluble | Cc1ccc(C2C=NN(C(c3ccccc3)C(O)c3ccccc3)C(=O)N2)cc1 (stereo not drawn) [Example 29, N-2[α(1,2-diphenylethan 1-ol)] 3-oxo 4,5-dihydro 5-p-methylphenyl as.-triazine]
12 | Soluble | Cc1ccc(-c2cnn(C(C(=O)c3ccccc3)c3ccccc3)c(=O)n2)cc1 (stereo not drawn) [Example 36, 2-N-desyl 3-oxo 5-p-methylphenyl as.-triazine]

Row | SMILES | solubility in alcohols in the hot
13 | CC(=O)Cn1ncc(-c2ccc(O)cc2)nc1=O [Example 2, 2-N-acetonyl 3-oxo 5-p-hydroxyphenyl as.-triazine] | Soluble in the hot, recrystallizes in the cold

Same assay, conditions: aqueous dilute acids

Row | solubility in aqueous dilute acids | SMILES
14 | Soluble | COc1ccc(-c2cnn(CCCN(C)C)c(=O)n2)cc1 [Example 17, 2-γ dimethylaminopropyl 3-oxo 5-p-methoxyphenyl as.-triazine]

Same assay, conditions: benzene

Row | SMILES | solubility in benzene
15 | CCOC(=O)CC(C(=O)OCC)n1ncc(-c2ccc(OC)cc2)nc1=O (stereo not drawn) [Example 27, 2-diethoxysuccinyl 3-oxo 5-p-methoxyphenyl as.-triazine] | Soluble
16 | CCOC(=O)CCCn1ncc(-c2ccc(C)cc2)nc1=O [Example 35, 2-N-ethylbutyrate 3-oxo 5-p-methylphenyl as.-triazine] | Soluble
17 | Cc1ccc(-c2cnn(C(CCO)C(=O)O)c(=O)n2)cc1 (stereo not drawn) [Example 19, 2-[3-(3-carboxy 1-propanol)] 3-oxo 5-p-methylphenyl as.-triazine] | Poorly soluble

Other lines, results leading:

Row | solubility in benzene | SMILES
18 | Insoluble | CC(=O)Cn1ncc(-c2ccc(O)cc2)nc1=O [Example 2, 2-N-acetonyl 3-oxo 5-p-hydroxyphenyl as.-triazine]
19 | Soluble | COc1ccc(-c2cnn(CCCN(C)C)c(=O)n2)cc1 [Example 17, 2-γ dimethylaminopropyl 3-oxo 5-p-methoxyphenyl as.-triazine]

Same assay, conditions: chloroform

Row | SMILES | solubility in chloroform
20 | COc1ccc(-c2cnn(CCCCCN3CCC(O)CC3)c(=O)n2)cc1 [Example 28, N 2-[ε-pentyl (4-hydroxypiperidine)] 3-oxo 5-p-methoxyphenyl as.-triazine] | Soluble
21 | CCOC(=O)CC(C(=O)OCC)n1ncc(-c2ccc(OC)cc2)nc1=O (stereo not drawn) [Example 27, 2-diethoxysuccinyl 3-oxo 5-p-methoxyphenyl as.-triazine] | Soluble
22 | CCOC(=O)CCCn1ncc(-c2ccc(C)cc2)nc1=O [Example 35, 2-N-ethylbutyrate 3-oxo 5-p-methylphenyl as.-triazine] | Soluble
23 | Cc1ccc(C2C=NN(C(c3ccccc3)C(O)c3ccccc3)C(=O)N2)cc1 (stereo not drawn) [Example 29, N-2[α(1,2-diphenylethan 1-ol)] 3-oxo 4,5-dihydro 5-p-methylphenyl as.-triazine] | insoluble
24 | Cc1ccc(-c2cnn(C(C(=O)c3ccccc3)c3ccccc3)c(=O)n2)cc1 (stereo not drawn) [Example 36, 2-N-desyl 3-oxo 5-p-methylphenyl as.-triazine] | Soluble
25 | Cc1ccc(-c2cnn(C(CCO)C(=O)O)c(=O)n2)cc1 (stereo not drawn) [Example 19, 2-[3-(3-carboxy 1-propanol)] 3-oxo 5-p-methylphenyl as.-triazine] | Poorly soluble

Continued, values first:

Row | solubility in chloroform | SMILES
26 | Insoluble | CC(=O)Cn1ncc(-c2ccc(O)cc2)nc1=O [Example 2, 2-N-acetonyl 3-oxo 5-p-hydroxyphenyl as.-triazine]
27 | Soluble | COc1ccc(-c2cnn(CCCN(C)C)c(=O)n2)cc1 [Example 17, 2-γ dimethylaminopropyl 3-oxo 5-p-methoxyphenyl as.-triazine]

Same assay, conditions: dilute aqueous bases

Row | solubility in dilute aqueous bases | SMILES
28 | soluble | CC(=O)Cn1ncc(-c2ccc(O)cc2)nc1=O [Example 2, 2-N-acetonyl 3-oxo 5-p-hydroxyphenyl as.-triazine]

Same assay, conditions: ether

Row | SMILES | solubility in ether
29 | Cc1ccc(C2C=NN(C(c3ccccc3)C(O)c3ccccc3)C(=O)N2)cc1 (stereo not drawn) [Example 29, N-2[α(1,2-diphenylethan 1-ol)] 3-oxo 4,5-dihydro 5-p-methylphenyl as.-triazine] | insoluble
30 | Cc1ccc(-c2cnn(C(CCO)C(=O)O)c(=O)n2)cc1 (stereo not drawn) [Example 19, 2-[3-(3-carboxy 1-propanol)] 3-oxo 5-p-methylphenyl as.-triazine] | insoluble

More lines, now with the values ahead:

Row | solubility in ether | SMILES
31 | Insoluble | CC(=O)Cn1ncc(-c2ccc(O)cc2)nc1=O [Example 2, 2-N-acetonyl 3-oxo 5-p-hydroxyphenyl as.-triazine]
32 | insoluble | COc1ccc(-c2cnn(CCCN(C)C)c(=O)n2)cc1 [Example 17, 2-γ dimethylaminopropyl 3-oxo 5-p-methoxyphenyl as.-triazine]

Same assay, conditions: methylene chloride

Row | solubility in methylene chloride | SMILES
33 | Soluble | COc1ccc(-c2cnn(CCCN(C)C)c(=O)n2)cc1 [Example 17, 2-γ dimethylaminopropyl 3-oxo 5-p-methoxyphenyl as.-triazine]
34 | Soluble | Cc1ccc(-c2cnn(C(C(=O)c3ccccc3)c3ccccc3)c(=O)n2)cc1 (stereo not drawn) [Example 36, 2-N-desyl 3-oxo 5-p-methylphenyl as.-triazine]

Same assay, conditions: water

Row | SMILES | solubility in water
35 | COc1ccc(-c2cnn(CCCCCN3CCC(O)CC3)c(=O)n2)cc1 [Example 28, N 2-[ε-pentyl (4-hydroxypiperidine)] 3-oxo 5-p-methoxyphenyl as.-triazine] | insoluble
36 | CCOC(=O)CC(C(=O)OCC)n1ncc(-c2ccc(OC)cc2)nc1=O (stereo not drawn) [Example 27, 2-diethoxysuccinyl 3-oxo 5-p-methoxyphenyl as.-triazine] | insoluble
37 | CCOC(=O)CCCn1ncc(-c2ccc(C)cc2)nc1=O [Example 35, 2-N-ethylbutyrate 3-oxo 5-p-methylphenyl as.-triazine] | insoluble
38 | Cc1ccc(C2C=NN(C(c3ccccc3)C(O)c3ccccc3)C(=O)N2)cc1 (stereo not drawn) [Example 29, N-2[α(1,2-diphenylethan 1-ol)] 3-oxo 4,5-dihydro 5-p-methylphenyl as.-triazine] | insoluble
39 | Cc1ccc(-c2cnn(C(C(=O)c3ccccc3)c3ccccc3)c(=O)n2)cc1 (stereo not drawn) [Example 36, 2-N-desyl 3-oxo 5-p-methylphenyl as.-triazine] | insoluble
40 | Cc1ccc(-c2cnn(C(CCO)C(=O)O)c(=O)n2)cc1 (stereo not drawn) [Example 19, 2-[3-(3-carboxy 1-propanol)] 3-oxo 5-p-methylphenyl as.-triazine] | insoluble

More lines, now with the values ahead:

Row | solubility in water | SMILES
41 | rather soluble | CC(=O)Cn1ncc(-c2ccc(O)cc2)nc1=O [Example 2, 2-N-acetonyl 3-oxo 5-p-hydroxyphenyl as.-triazine]
42 | Insoluble | COc1ccc(C(=O)Cn2ncc(-c3ccc(OC)cc3)nc2=O)cc1 [Example 40, 2-p.methoxyphenacyl 3-oxo 5-p.methoxyphenyl as triazine]
43 | insoluble | COc1ccc(-c2cnn(CCCN(C)C)c(=O)n2)cc1 [Example 17, 2-γ dimethylaminopropyl 3-oxo 5-p-methoxyphenyl as.-triazine]
44 | insoluble | COc1ccc(-c2cnn(CC(=O)c3ccccc3)c(=O)n2)cc1 [Example 37, 2-Phenacyl 3-oxo 5-p.methoxyphenyl as triazine]
45 | Insoluble | COc1ccc(-c2cnn(CC(=O)c3ccc(Cl)cc3Cl)c(=O)n2)cc1 [Example 39, 2-(dichloro-2,4 phenacyl) 3-oxo 5-p.methoxyphenyl as triazine]
